This is an account of results in ChEMBL document CHEMBL5543143, “Potentiating Activity of GmhA Inhibitors on Gram-Negative Bacteria” (J Med Chem, 2024).

Active and inactive are the calls of the source. No cut-off for these calls is given here.

One assay concerns HepG2. The assay is described as follows: Cytotoxicity against human HepG2 cells incubated overnight by Celltiter aqueous one solution cell proliferation assay. The format is functional.
The next assay has as its target Phosphoheptose isomerase (Escherichia coli (strain K12), UniProt P63224). The arrangement: species or system K96243.
For assay [1], the system named is Escherichia coli. The assay is described as follows: Potentiation of erythromycin induced antibacterial activity against Escherichia coli C7 (018:K1:H7) assessed as erythromycin MIC incubated overnight by two fold serial dilution assay. It counts as functional.
Assay [2] deals with Escherichia coli. The assay is described as follows: Antibacterial activity in Escherichia coli C7 (018:K1:H7) assessed as reduction in bacterial growth at 300 uM measured after 24 hrs by time-kill kinetics assay. It counts as functional, organism-based.
The subject of assay [3] is Escherichia coli. Kind of assay: Potentiation of rifampicin induced antibacterial activity against Escherichia coli C7 (018:K1:H7) assessed as rifampicin MIC incubated overnight by two fold serial dilution assay. The format is functional.

Phosphoheptose isomerase, sequence (P63224 whole entry, looked up): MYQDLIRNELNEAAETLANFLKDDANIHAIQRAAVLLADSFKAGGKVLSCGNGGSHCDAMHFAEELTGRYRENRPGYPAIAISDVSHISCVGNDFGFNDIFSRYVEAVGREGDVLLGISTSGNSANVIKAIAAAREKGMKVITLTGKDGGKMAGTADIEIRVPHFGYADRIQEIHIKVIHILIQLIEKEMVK

In the assay on HepG2, `O=CN(O)C[C@H](O)[C@H](O)[C@H](O)COP(=O)(O)O` showed a CC50 greater than 1000 µM. For the same compound, at Phosphoheptose isomerase, the IC50 was 0.002 µM. Further, the results for the MIC in the assay with Escherichia coli [1] and in the assay with Escherichia coli [3] were 1 mg/L and 0.25 mg/L, respectively. For the same compound, in the assay with Escherichia coli [2], the outcome was inactive.
With `O=CN(O)C[C@H](O)[C@H](O)[C@H](O)CCP(=O)(O)O`, the half-maximal cytotoxic concentration (CC50) in the assay on HepG2 was greater than 1000 µM.
